In assay [1] the target is T1, σ1 receptor (Cavia porcellus, UniProt Q60492). Conditions: read-out: Ki-σ1 of racemic compounds, previously reported; cited from earlier work.
The target of assay [2] is T1, σ1 receptor. The assay is described as follows: σ1 receptor competitive binding assay. Conditions: Ki σ1, (+)-isomer, guinea pig brain membranes, mean ± SEM.
For assay [3], the target named is emopamil binding protein (EBP). The conditions noted are these: read-out: Ki for emopamil binding protein (EBP); cited from earlier work.
For assay [4], the target named is vesicular acetylcholine transporter (VAChT). The conditions noted are these: cited from earlier work.
In assay [5] the target is σ1 receptor. Conditions: cited from earlier work; for Ki: read-out: Ki-σ1.
A further assay deals with σ2 receptor. Conditions: read-out: Ki-σ2; cited from earlier work.
Assay [6] has as its system σ1 receptor. Kind of assay: MicroPET blocking study with σ1 ligand pretreatment in nonhuman primate. The conditions noted are these: 1.0 mg/kg i.v. 5 min prior to tracer injection, NHP, versus baseline. It is filed as in vivo, cynomolgus macaque.

Like-named read-outs stand apart in the source and are kept apart here.

The term Ki denotes a dissociation constant, usually derived from enzyme kinetics or from competition with a known ligand.

T1 sequence (Q60492 whole entry): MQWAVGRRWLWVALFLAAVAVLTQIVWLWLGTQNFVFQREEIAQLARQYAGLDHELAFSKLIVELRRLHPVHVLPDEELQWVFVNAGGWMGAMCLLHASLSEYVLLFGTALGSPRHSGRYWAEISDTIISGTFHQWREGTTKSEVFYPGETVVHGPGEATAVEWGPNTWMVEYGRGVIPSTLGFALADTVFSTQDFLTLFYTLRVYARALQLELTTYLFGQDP

Take `O=C(c1ccc(F)cc1)C1CCN(C2CCN(Cc3ccc(F)cc3)CC2O)CC1` (racemic) [14a]: at σ1 receptor [1], the inhibition constant Ki is 0.48 nM.

In the case of `O=C(c1ccc(F)cc1)C1CCN(C2CCN(Cc3ccc(F)cc3)CC2O)CC1` (single isomer, unassigned; (+)) [(+)-14a], on σ1 receptor [2], affinity was put at a Ki of 0.14 ± 0.02 nM.

For the compound `COc1ccc(CCN2CCN(CCCc3ccccc3)CC2)cc1OC` [SA4503], the inhibitory constant (Ki) in assay [3] is 1.7 nM; in assay [4] (read-out: Ki for VAChT), 50 nM.

In the case of `O=C(Cc1ccccc1F)NC1CCC(Cc2ccccc2)CC1` (centres unmarked) [Yun122, N-(4-benzylcyclohexyl)-2-(2-fluorophenyl)acetamide], the Ki is 3.6 nM on σ1 receptor [5] and 667 nM on σ2 receptor. Moreover, in the assay with σ1 receptor [6], the “effect of pretreatment on brain uptake of (−)-[18F]TZ3108” value is given as “significantly reduced”.

On to `COc1ccc(CCN2CCN(CCCc3ccccc3)CC2)cc1O[11CH3]` [[^11C]SA4503, 1-(4-methoxy-3-(methoxy-^11C)phenethyl-^11C)-4-(3-phenyl-propyl)piperazine], for which, in the assay with σ1 receptor [5], the “selectivity for σ1 over VAChT” value is listed as 11 fold and the “selectivity for σ1 over σ2 receptor” value is recorded as 55 fold.

With `O=c1sc2cc(CCCF)ccc2n1CCN1CCCCCC1` [[^18F]FTC-146, ^18F-6-(3-fluoropropyl)-3-(2-(azepan-1 yl)ethyl)benzo-[d]thiazol-2(3H)-one], the Ki in assay [4] (read-out: Ki-VAChT) was 450 nM; on σ1 receptor [5] it was 0.0025 nM.

The values above are taken from publication PMC5303003 (Bioorganic & medicinal chemistry, 2017).
